Assay results reported in ChEMBL document CHEMBL1944578, “Synthesis and anticonvulsant activity of novel 2,6-diketopiperazine derivatives. Part 2: Perhydropyrido[1,2-a]pyrazines” (Eur J Med Chem, 2012).
Active and inactive are the calls of the source. The rule behind the calls is not given here.

Columns and labels:
Mus musculus [1] = assay: Anticonvulsant activity in Carworth farms No.1 albino mouse assessed as protection against 6 Hz electric current-induced seizure at 100 mg/kg, ip measured after 4 hrs; assay type: functional, organism-based; set-up: dose 100 mg/kg
Mus musculus [2] = assay: Anticonvulsant activity in Carworth farms No.1 albino mouse assessed as protection against 6 Hz electric current-induced seizure at 100 mg/kg, ip measured after 1 hrs; assay type: functional, organism-based; set-up: dose 100 mg/kg
Mus musculus [3] = assay: Anticonvulsant activity in ip dosed Carworth farms No.1 albino mouse assessed as protection against maximum electroshock; assay type: functional
Mus musculus [4] = assay: Anticonvulsant activity in Carworth farms No.1 albino mouse assessed as protection against maximum electroshock at 100 mg/kg, ip measured after 4 hrs; assay type: functional, organism-based; set-up: dose 100 mg/kg
Mus musculus [5] = assay: Neurotoxicity in Carworth farms No.1 albino mouse assessed as inability to grasp rotarod at 300 mg/kg, ip measured after 0.5 hrs; assay type: toxicity, organism-based; set-up: dose 300 mg/kg, route intraperitoneal; conditions: in vivo
Mus musculus [6] = assay: Anticonvulsant activity in Carworth farms No.1 albino mouse assessed as protection against subcutaneous metrazole-induced seizures at 300 mg/kg, ip measured after 0.5 hrs; assay type: functional, organism-based; set-up: dose 300 mg/kg
Rattus norvegicus [7] = assay: Toxicity in Sprague-Dawley rat assessed as mortality at 600 mg/kg, ip measured after 0.5 hrs; assay type: organism-based; set-up: dose 600 mg/kg, route intraperitoneal; conditions: in vivo
Rattus norvegicus [8] = assay: Anticonvulsant activity in Sprague-Dawley rat assessed as protection against maximum electroshock at 30 mg/kg, po measured after 1 hr; assay type: functional, organism-based; set-up: dose 30 mg/kg
Mus musculus [9] = organism: Mus musculus; assay: Anticonvulsant activity in electric shock-induced Carworth farms No.1 albino mouse assessed as time of peak effect; assay type: functional
Mus musculus [10] = assay: Anticonvulsant activity in Carworth farms No.1 albino mouse assessed as protection against maximum electroshock at 300 mg/kg, ip measured after 0.5 hrs; assay type: functional, organism-based; set-up: dose 300 mg/kg
Rattus norvegicus [11] = assay: Neurotoxicity in Sprague-Dawley rat assessed as neurological impairment at 30 mg/kg, po measured after 2 hrs; assay type: toxicity, organism-based; set-up: dose 30 mg/kg, route oral; conditions: in vivo
Rattus norvegicus [12] = assay: Toxicity in Sprague-Dawley rat assessed as body weight change in protected animals at 600 mg/kg, ip measured after 0.5 hrs; assay type: organism-based; set-up: dose 600 mg/kg, route intraperitoneal; conditions: in vivo
Mus musculus [13] = assay: Anticonvulsant activity in Carworth farms No.1 albino mouse assessed as protection against subcutaneous metrazole-induced seizures at 100 mg/kg, ip measured after 4 hrs; assay type: functional, organism-based; set-up: dose 100 mg/kg
Mus musculus [14] = assay: Neurotoxicity in Carworth farms No.1 albino mouse assessed as neurological impairment at 100 mg/kg, ip measured after 1 hr; assay type: toxicity, organism-based; set-up: dose 100 mg/kg, route intraperitoneal; conditions: in vivo
Mus musculus [15] = assay: Anticonvulsant activity in Carworth farms No.1 albino mouse assessed as protection against subcutaneous metrazole-induced seizures at 300 mg/kg, ip measured after 4 hrs; assay type: functional, organism-based; set-up: dose 300 mg/kg
Rattus norvegicus [16] = assay: Neurotoxicity in Sprague-Dawley rat assessed as neurological impairment at 30 mg/kg, po measured after 0.5 hrs; assay type: toxicity, organism-based; set-up: dose 30 mg/kg, route oral; conditions: in vivo
Rattus norvegicus [17] = assay: Neurotoxicity in Sprague-Dawley rat assessed as neurological impairment at 30 mg/kg, po measured after 4 hrs; assay type: toxicity, organism-based; set-up: dose 30 mg/kg, route oral; conditions: in vivo
Rattus norvegicus [18] = assay: Neurotoxicity in Sprague-Dawley rat assessed as neurological impairment at 30 mg/kg, po measured after 0.25 hrs; assay type: toxicity, organism-based; set-up: dose 30 mg/kg, route oral; conditions: in vivo
Rattus norvegicus [19] = assay: Anticonvulsant activity in Sprague-Dawley rat assessed as protection against pilocarpine-induced status at 600 mg/kg, ip measured after 0.5 hrs; assay type: functional, organism-based; set-up: dose 600 mg/kg
Rattus norvegicus [20] = assay: Toxicity in Sprague-Dawley rat assessed as body weight change in unprotected animal at 600 mg/kg, ip measured after 0.5 hrs; assay type: organism-based; set-up: dose 600 mg/kg, route intraperitoneal; conditions: in vivo
Rattus norvegicus [21] = assay: Anticonvulsant activity in Sprague-Dawley rat assessed as protection against maximum electroshock at 30 mg/kg, po measured after 2 hrs; assay type: functional, organism-based; set-up: dose 30 mg/kg
Mus musculus [22] = assay: Anticonvulsant activity in Carworth farms No.1 albino mouse assessed as protection against subcutaneous metrazole-induced seizures at 30 mg/kg, ip measured after 0.5 hrs; assay type: functional, organism-based; set-up: dose 30 mg/kg
Mus musculus [23] = assay: Anticonvulsant activity in Carworth farms No.1 albino mouse assessed as protection against maximum electroshock at 30 mg/kg, ip measured after 4 hrs; assay type: functional, organism-based; set-up: dose 30 mg/kg
Mus musculus [24] = assay: Anticonvulsant activity in Carworth farms No.1 albino mouse assessed as protection against maximum electroshock at 100 mg/kg, ip measured after 0.5 hrs; assay type: functional, organism-based; set-up: dose 100 mg/kg
Mus musculus [25] = assay: Neurotoxicity in Carworth farms No.1 albino mouse assessed as neurological impairment at 100 mg/kg, ip measured after 2 hr; assay type: toxicity, organism-based; set-up: dose 100 mg/kg, route intraperitoneal; conditions: in vivo
Mus musculus [26] = assay: Anticonvulsant activity in Carworth farms No.1 albino mouse assessed as protection against maximum electroshock at 30 mg/kg, ip measured after 0.5 hrs; assay type: functional, organism-based; set-up: dose 30 mg/kg
Mus musculus [27] = assay: Anticonvulsant activity in Carworth farms No.1 albino mouse assessed as protection against 6 Hz electric current-induced seizure at 100 mg/kg, ip measured after 0.25 hrs; assay type: functional, organism-based; set-up: dose 100 mg/kg
Mus musculus [28] = assay: Anticonvulsant activity in Carworth farms No.1 albino mouse assessed as protection against 6 Hz electric current-induced seizure at 100 mg/kg, ip measured after 2 hrs; assay type: functional, organism-based; set-up: dose 100 mg/kg
Rattus norvegicus [29] = assay: Anticonvulsant activity in Sprague-Dawley rat assessed as protection against maximum electroshock at 30 mg/kg, po measured after 0.25 hrs; assay type: functional, organism-based; set-up: dose 30 mg/kg
Mus musculus [30] = assay: Neurotoxicity in Carworth farms No.1 albino mouse assessed as neurological impairment at 100 mg/kg, ip measured after 4 hrs; assay type: toxicity, organism-based; set-up: dose 100 mg/kg, route intraperitoneal; conditions: in vivo
Mus musculus [31] = assay: Anticonvulsant activity in Carworth farms No.1 albino mouse assessed as protection against subcutaneous metrazole-induced seizures at 100 mg/kg, ip measured after 0.5 hrs; assay type: functional, organism-based; set-up: dose 100 mg/kg
Mus musculus [32] = organism: Mus musculus; assay: Anticonvulsant activity in maximum electroshock-induced Carworth farms No.1 albino mouse assessed as time of peak effect; assay type: functional
Mus musculus [33] = assay: Anticonvulsant activity in ip dosed Carworth farms No.1 albino mouse assessed as protection against 6 Hz electric current-induced seizure measured after 0.25 hrs; assay type: functional
Mus musculus [34] = assay: Neurotoxicity in Carworth farms No.1 albino mouse assessed as neurological impairment at 30 mg/kg, ip measured after 4 hrs; assay type: toxicity, organism-based; set-up: dose 30 mg/kg, route intraperitoneal; conditions: in vivo
Rattus norvegicus [35] = assay: Anticonvulsant activity in Sprague-Dawley rat assessed as protection against maximum electroshock at 30 mg/kg, po measured after 4 hrs; assay type: functional, organism-based; set-up: dose 30 mg/kg
Mus musculus [36] = assay: Anticonvulsant activity in Carworth farms No.1 albino mouse assessed as protection against 6 Hz electric current-induced seizure at 100 mg/kg, ip measured after 0.5 hrs; assay type: functional, organism-based; set-up: dose 100 mg/kg
Mus musculus [37] = assay: Neurotoxicity in Carworth farms No.1 albino mouse assessed as neurological impairment at 30 mg/kg, ip measured after 0.5 hrs; assay type: toxicity, organism-based; set-up: dose 30 mg/kg, route intraperitoneal; conditions: in vivo
Mus musculus [38] = assay: Neurotoxicity in Carworth farms No.1 albino mouse assessed as neurological impairment at 300 mg/kg, ip measured after 4 hrs; assay type: toxicity, organism-based; set-up: dose 300 mg/kg, route intraperitoneal; conditions: in vivo
Mus musculus [39] = assay: Neurotoxicity in Carworth farms No.1 albino mouse assessed as neurological impairment at 100 mg/kg, ip measured after 0.5 hrs; assay type: toxicity, organism-based; set-up: dose 100 mg/kg, route intraperitoneal; conditions: in vivo
[40] = Neurotoxicity in ip dosed Carworth farms No.1 albino mouse assessed as inability to grasp rotarod measured after 0.25 hrs; assay type: toxicity, organism-based; conditions: in vivo
Rattus norvegicus [41] = assay: Neurotoxicity in Sprague-Dawley rat assessed as neurological impairment at 30 mg/kg, po measured after 1 hr; assay type: toxicity, organism-based; set-up: dose 30 mg/kg, route oral; conditions: in vivo
Mus musculus [42] = assay: Neurotoxicity in Carworth farms No.1 albino mouse assessed as neurological impairment at 100 mg/kg, ip measured after 0.25 hrs; assay type: toxicity, organism-based; set-up: dose 100 mg/kg, route intraperitoneal; conditions: in vivo
Mus musculus [43] = assay: Anticonvulsant activity in ip dosed Carworth farms No.1 albino mouse assessed as protection against subcutaneous metrazole-induced seizures; assay type: functional
Mus musculus [44] = assay: Anticonvulsant activity in Carworth farms No.1 albino mouse assessed as protection against subcutaneous metrazole-induced seizures at 30 mg/kg, ip measured after 4 hrs; assay type: functional, organism-based; set-up: dose 30 mg/kg
Mus musculus [45] = assay: Anticonvulsant activity in Carworth farms No.1 albino mouse assessed as protection against maximum electroshock at 300 mg/kg, ip measured after 4 hrs; assay type: functional, organism-based; set-up: dose 300 mg/kg
Rattus norvegicus [46] = assay: Anticonvulsant activity in Sprague-Dawley rat assessed as protection against maximum electroshock at 30 mg/kg, po measured after 0.5 hrs; assay type: functional, organism-based; set-up: dose 30 mg/kg

With O=C1NC(=O)[C@H](c2ccccc2)N2CCCC[C@H]12 the Activity (Mus musculus [1]) was “inactive”, the Activity (Mus musculus [2]) was “inactive” and the ED50 (Mus musculus [3]) was 95.7 mg/kg. For the same compound, the Activity (Mus musculus [4]) was “inactive”, the Activity (Mus musculus [5]) was “Toxic” and the Activity (Mus musculus [6]) was “Active”. The Activity (Rattus norvegicus [7]) was “Toxic”, the Activity (Rattus norvegicus [8]) was “inactive” and the Time (Mus musculus [9]) was 0.25 h. For the same compound, the Activity (Mus musculus [10]) was “Active”, the Activity (Rattus norvegicus [11]) was “Non-toxic” and the Activity (Rattus norvegicus [12]) was -30 g. The Activity (Mus musculus [13]) was “inactive”, the Activity (Mus musculus [14]) was “Non-toxic” and the Activity (Mus musculus [15]) was “inactive”. For the same compound, the Activity (Rattus norvegicus [16]) was “Non-toxic”, the Activity (Rattus norvegicus [17]) was “Non-toxic” and the Activity (Rattus norvegicus [18]) was “Non-toxic”. The Activity (Rattus norvegicus [19]) was “inactive”, the Activity (Rattus norvegicus [20]) was -31 g and the Activity (Rattus norvegicus [21]) was “inactive”. For the same compound, the Activity (Mus musculus [22]) was “inactive”, the Activity (Mus musculus [23]) was “inactive” and the Activity (Mus musculus [24]) was “Active”. The Activity (Mus musculus [25]) was “Non-toxic”, the Activity (Mus musculus [26]) was “inactive” and the Activity (Mus musculus [27]) was “Active”. The Activity (Mus musculus [28]) was “inactive”, the Activity (Rattus norvegicus [29]) was “inactive” and the Activity (Mus musculus [30]) was “Non-toxic”. The Activity (Mus musculus [31]) was “inactive”, the Time (Mus musculus [32]) was 0.5 h and the ED50 (Mus musculus [33]) was 32.3 mg/kg. For the same compound, the Activity (Mus musculus [34]) was “Non-toxic”, the Activity (Rattus norvegicus [35]) was “inactive” and the Activity (Mus musculus [36]) was “Active”. The Activity (Mus musculus [37]) was “Non-toxic”, the Activity (Mus musculus [38]) was “Non-toxic” and the Activity (Mus musculus [39]) was “Toxic”. The TD50 at 0.25 h [40] was 151 mg/kg, the Activity (Rattus norvegicus [41]) was “Non-toxic” and the Activity (Mus musculus [42]) was “Non-toxic”. For the same compound, the ED50 (Mus musculus [43]) was 99.2 mg/kg, the Activity (Mus musculus [44]) was “inactive” and the Activity (Mus musculus [45]) was “inactive”. The Activity (Rattus norvegicus [46]) was “inactive”.
